According to ChEMBL document CHEMBL1201862, “PubChem BioAssay data set” (2004):
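Compound exposure: 48 hours, 5 concentrations, 96-well plates. GI50: concentration for 50% inhibition of growth.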 The source made the active and inactive calls. Rule as the data show it: active = GI50 up to about 1.1 µM and inactive = higher.

Legend:
Assay in all cases: NCI-60 cell line screen, 48 h
M14 = system: M14
RPMI-8226 = system: RPMI-8226
UACC-62 = system: UACC-62
MOLT-4 = system: MOLT-4
NCI-H460 = system: NCI-H460
NCI-H522 = system: NCI-H522
SF-539 = system: SF-539
UO-31 = system: UO-31
COLO 205 = system: COLO 205
MDA-MB-435 = system: MDA-MB-435
HOP-62 = system: HOP-62
ACHN = system: ACHN
LOX IMVI = system: LOX IMVI
Malme-3M = system: Malme-3M
EKVX = system: EKVX
UACC-257 = system: UACC-257
PC-3 = system: PC-3
IGROV-1 = system: IGROV-1
CCRF-CEM = system: CCRF-CEM
SNB-19 = system: SNB-19
HCC 2998 = system: HCC 2998
NCI-H23 = system: NCI-H23
HCT-116 = system: HCT-116
SR = system: SR
786-0 = system: 786-0
MDA-N = system: MDA-N
A498 = system: A498
T47D = system: T47D
NCI/ADR-RES = system: NCI/ADR-RES
NCI-H226 = system: NCI-H226
OVCAR-3 = system: OVCAR-3
CAKI-1 = system: CAKI-1
MCF7 = system: MCF7
RXF 393 = system: RXF 393
Hs-578T = system: Hs-578T
A549 = system: A549
HL-60 = system: HL-60
HT-29 = system: HT-29
OVCAR-4 = system: OVCAR-4
SF-268 = system: SF-268
SK-OV-3 = system: SK-OV-3
KM12 = system: KM12
U-251 = system: U-251
OVCAR-5 = system: OVCAR-5
SF-295 = system: SF-295
SNB-75 = system: SNB-75
DU-145 = system: DU-145
SN12C = system: SN12C
HOP-92 = system: HOP-92
K562 = system: K562
SK-MEL-2 = system: SK-MEL-2
SW-620 = system: SW-620
TK-10 = system: TK-10
HCT-15 = system: HCT-15
OVCAR-8 = system: OVCAR-8
BT-549 = system: BT-549
SK-MEL-28 = system: SK-MEL-28
SK-MEL-5 = system: SK-MEL-5
MDA-MB-231 = system: MDA-MB-231

O/N=C1\CC2(N3CCOCC3)CCC1(c1ccccc1)CC2
GI50 (M14): > 100 µM (inactive) | GI50 (RPMI-8226): > 100 µM (inactive) | GI50 (UACC-62): > 100 µM (inactive) | GI50 (MOLT-4): > 100 µM (inactive) | GI50 (NCI-H460): > 100 µM (inactive) | GI50 (NCI-H522): > 100 µM (inactive) | GI50 (SF-539): > 100 µM (inactive) | GI50 (UO-31): > 100 µM (inactive) | GI50 (COLO 205): > 100 µM (inactive) | GI50 (MDA-MB-435): > 100 µM (inactive) | GI50 (HOP-62): > 100 µM (inactive) | GI50 (ACHN): > 100 µM (inactive) | GI50 (LOX IMVI): > 100 µM (inactive) | GI50 (Malme-3M): > 100 µM (inactive) | GI50 (EKVX): > 100 µM (inactive) | GI50 (UACC-257): > 100 µM (inactive) | GI50 (PC-3): > 100 µM (inactive) | GI50 (IGROV-1): > 100 µM (inactive) | GI50 (CCRF-CEM): > 100 µM (inactive) | GI50 (SNB-19): > 100 µM (inactive) | GI50 (HCC 2998): > 100 µM (inactive) | GI50 (NCI-H23): > 100 µM (inactive) | GI50 (HCT-116): > 100 µM (inactive) | GI50 (SR): > 100 µM (inactive) | GI50 (786-0): > 100 µM (inactive) | GI50 (MDA-N): > 100 µM (inactive) | GI50 (A498): > 100 µM (inactive) | GI50 (T47D): > 100 µM (inactive) | GI50 (NCI/ADR-RES): > 100 µM (inactive) | GI50 (NCI-H226): > 100 µM (inactive) | GI50 (OVCAR-3): > 100 µM (inactive) | GI50 (CAKI-1): > 100 µM (inactive) | GI50 (MCF7): > 100 µM (inactive) | GI50 (RXF 393): > 100 µM (inactive) | GI50 (Hs-578T): > 100 µM (inactive) | GI50 (A549): > 100 µM (inactive) | GI50 (HL-60): > 100 µM (inactive) | GI50 (HT-29): > 100 µM (inactive) | GI50 (OVCAR-4): > 100 µM (inactive) | GI50 (SF-268): > 100 µM (inactive) | GI50 (SK-OV-3): > 100 µM (inactive) | GI50 (KM12): > 100 µM (inactive) | GI50 (U-251): > 100 µM (inactive) | GI50 (OVCAR-5): > 100 µM (inactive) | GI50 (SF-295): > 100 µM (inactive) | GI50 (SNB-75): > 100 µM (inactive) | GI50 (DU-145): > 100 µM (inactive) | GI50 (SN12C): > 100 µM (inactive) | GI50 (HOP-92): > 100 µM (inactive) | GI50 (K562): > 100 µM (inactive) | GI50 (SK-MEL-2): > 100 µM (inactive) | GI50 (SW-620): > 100 µM (inactive) | GI50 (TK-10): > 100 µM (inactive) | GI50 (HCT-15): > 100 µM | GI50 (OVCAR-8): > 100 µM (inactive) | GI50 (BT-549): > 100 µM (inactive) | GI50 (SK-MEL-28): > 100 µM (inactive) | GI50 (SK-MEL-5): > 100 µM (inactive)

Cc1ccc(S(=O)(=O)N2CCSCCSCCSCCN(S(=O)(=O)c3ccc(C)cc3)CC2)cc1
GI50 (M14): > 100 µM (inactive) | GI50 (RPMI-8226): > 100 µM (inactive) | GI50 (UACC-62): > 100 µM (inactive) | GI50 (MOLT-4): > 100 µM (inactive) | GI50 (NCI-H460): > 100 µM (inactive) | GI50 (SF-539): > 100 µM (inactive) | GI50 (UO-31): > 100 µM (inactive) | GI50 (MDA-MB-231): > 100 µM (inactive) | GI50 (COLO 205): > 100 µM (inactive) | GI50 (MDA-MB-435): > 100 µM (inactive) | GI50 (HOP-62): > 100 µM (inactive) | GI50 (ACHN): > 100 µM (inactive) | GI50 (EKVX): > 100 µM (inactive) | GI50 (UACC-257): > 100 µM (inactive) | GI50 (IGROV-1): > 100 µM (inactive) | GI50 (SNB-19): > 100 µM (inactive) | GI50 (HCC 2998): > 100 µM (inactive) | GI50 (NCI-H23): > 100 µM (inactive) | GI50 (HCT-116): > 100 µM (inactive) | GI50 (786-0): > 100 µM (inactive) | GI50 (MDA-N): > 100 µM (inactive) | GI50 (A498): > 100 µM (inactive) | GI50 (T47D): > 100 µM (inactive) | GI50 (NCI/ADR-RES): > 100 µM (inactive) | GI50 (NCI-H226): > 100 µM (inactive) | GI50 (OVCAR-3): > 100 µM (inactive) | GI50 (MCF7): > 100 µM (inactive) | GI50 (RXF 393): > 100 µM (inactive) | GI50 (Hs-578T): > 100 µM (inactive) | GI50 (A549): > 100 µM (inactive) | GI50 (HL-60): > 100 µM (inactive) | GI50 (HT-29): > 100 µM (inactive) | GI50 (OVCAR-4): > 100 µM (inactive) | GI50 (SF-268): > 100 µM (inactive) | GI50 (SK-OV-3): > 100 µM (inactive) | GI50 (KM12): > 100 µM (inactive) | GI50 (U-251): > 100 µM (inactive) | GI50 (OVCAR-5): > 100 µM (inactive) | GI50 (SF-295): > 100 µM (inactive) | GI50 (SNB-75): 61 µM (inactive) | GI50 (DU-145): > 100 µM (inactive) | GI50 (SN12C): > 100 µM (inactive) | GI50 (HOP-92): > 100 µM (inactive) | GI50 (K562): > 100 µM (inactive) | GI50 (SK-MEL-2): > 100 µM (inactive) | GI50 (SW-620): > 100 µM (inactive) | GI50 (TK-10): > 100 µM (inactive) | GI50 (OVCAR-8): > 100 µM (inactive) | GI50 (BT-549): > 100 µM (inactive) | GI50 (SK-MEL-28): > 100 µM (inactive) | GI50 (SK-MEL-5): > 100 µM (inactive)
